Read-outs that look alike come from different tables or passages of the source.
Experiments:
UT-7 cells = experiment: UT-7 cell proliferation with SCF stimulation as a measure of wild-type KIT activity (CellTiter-Glo); type: cell-based, human; conditions: Homo sapiens, UT7, 72 h, SCF-stimulated UT-7 cell proliferation
Excerpt: UT-7 Cell Proliferation with SCF Stimulation Assay as a Measure of Wild-Type KIT Activity
UT-7 cells are human megakaryoblastic leukemia cell lines that can be grown in culture with dependence on granulocyte macrophage colony stimulating factor (GM-CSF) or stem cell factor (SCF). UT-7 cells respond to SCF stimulation by activation of the KIT receptor tyrosine kinase and subsequent downstream signaling that can support cell growth and proliferation (Kuriu et al, 1999; Komatsu et al, 1991; Sasaki et al, 1995). Test compounds were assayed for their ability to inhibit SCF-stimulated proliferation of UT-7 cells.
Inhibition of SCF-stimulated UT-7 cell proliferation was assessed using the CellTiter-Glo assay that quantifies the amount of adenosine triphosphate (ATP) present, which is a readout of metabolically active cells and is directly proportional to the number of viable cells in culture. The ability of test compounds to inhibit SCF-stimulated UT-7 cell proliferation was determined using a 10-point dose curve ranging from 25 μM to 95.4 pM of test compound.
UT-7 cells were maintained in IMDM supplemented with 10% FBS, 5 ng/mL GM-CSF and 100 units/mL Penicillin-Streptomycin and grown in a 37° C. humidified tissue culture incubator. UT-7 cells were washed once with serum free, GM-CSF free IMDM. Cells were then resuspended in IMDM containing 4% FBS and 50 ng/mL SCF and seeded at 2500 cells per well in a volume of 22 μL in a 384-well microplate. A 10-point dose concentration series of test compounds (25.0 μM to 95.4 pM) were then added to the cells in a volume of 3.1 μL to each well (0.25% DMSO final concentration) and placed in a tissue culture incubator (5% CO2, 37° C.) for 72 hours. After 3-days with test compound, CellTiter-Glo reagent was prepared fresh and 25 μL of reagent was added to each well. The plate was mixed by shaking for 10 minutes at RT at 300 rpm on a plate shaker. The plate was read on an EnVision plate reader using the Ultra Sensitive Luminescence protocol for a 384-well plate.

[1] = Brain penetration in rats, brain to plasma ratios (Kp,brain, Kpuu,brain); type: in vivo, Sprague-Dawley rats; conditions: for Kp uu at 24 h / Kp at 24 h: Sprague-Dawley, rat, brain, intravenous, 1 mg/kg/hr; for Kp at 24 h / Rat Kp: rat brain to plasma ratio; for Kp at 24 h: read-out: Rat Kp
Excerpt: To understand the brain penetration, brain to plasma ratios of the compounds were obtained in Sprague-Dawley (SD) rats. In vivo equilibrium distribution between blood and brain in preclinical species such as rats is a commonly used parameter to evaluate brain penetration. Kp,brain is the ratio of concentrations in brain and blood (Cbrain/Cplasma) The compound's passive diffusion characteristics, its affinity for membrane transporters at the blood-brain barrier (BBB), and the relative drug binding affinity differences between the plasma proteins and brain tissue influence the Kp,brain.
The animals received IV infusion of 1 mg/kg/hr of the compound over 24 hours via jugular vein cannulation. At 24 hours, blood was collected via tail vein bleeding or cardiac puncture (under anesthesia) and centrifuged to obtain plasma samples. Brain tissues were collected and homogenized with phosphate-buffered saline (PBS). The concentrations of the compounds were obtained in the plasma and brain homogenates by LC-MS/MS analysis.

KIT D816V [2] = target: KIT D816V (Homo sapiens (Human), UniProt P10721, D816V); experiment: KIT D816V biochemical enzymatic activity assay (EZReader 2 mobility shift); conditions: at APPKM for ATP, 20 μM ATP, 60 minutes
Excerpt: (§1) PDGFRα and KIT enzymatic activity was monitored using the Perkin Elmer electrophoretic mobility shift technology platform, the EZReader 2.
(§2) Within the linear, steady-state phase of the kinase enzymatic reaction, the mixed pool of phosphorylated (product) and non-phosphorylated (substrate) peptides was passed through the microfluidic system of the PerkinElmer EZ Reader 2, under an applied electric potential difference. The presence of the phosphate group on the product peptide provided a difference in mass and charge between that of the substrate peptide, resulting in a separation of the substrate and product pools in the sample (Perrin et al., Expert Opin Drug Discovery 2010 Jan. 5(1):51-63).
(§3) As the product and substrate peptide mixture passes the lasers within the instrument, these pools are detected (λex=488 nm, λem=568 nm) and resolved as separate peaks. The ratio between these peaks reflects the activity of the compound at that concentration, in that well, under those conditions.
(§4) All test articles were dissolved in 100% DMSO at a stock concentration of 10 mM. A 100×, 10-point, 4-fold serial dilution of all test compounds was created in 100% DMSO, starting at a relevant concentration, usually 1 mM. A volume of 0.130 μL of each concentration was transferred to the relevant well of a 384-well assay plate (Greiner 781 201) using a TTPLabtech Mosquito nano-liter dispenser. Using the Multidrop, the remaining constituents of the reaction were then added to the 0.130 μL of compound as follows:
The plate was read on a Caliper EZReader 2.

KIT D816V [3] = target: KIT D816V (Homo sapiens (Human), UniProt P10721, D816V/V560G); experiment: HMC1.2 autophosphorylation assay (phospho-Y719 KIT AlphaLISA); type: cell-based; conditions: HMC1.2 cell line, KIT autophosphorylation at tyrosine 719, 90 minutes; read-out: KIT (P-KIT HMC1.2 (nM))
Experimental: 10,000 HMC1.2 cells were incubated in 22 μL culture media (phenol-red free IMDM, no serum) in each well of a 384-well plate and serum starved overnight in a tissue culture incubator (5% CO2, 37° C.). […] 10 μL of 100 μg/mL streptavidin donor beads (Perkin Elmer) were added to each well, blocked from light with solid black adhesive and shaken at 300 rpm at room temperature for 2 hours. Fluorescence signal was obtained on Envision (Perkin Elmer) by AlphaScreen 384 well HTS protocol.

wt KIT kinase = wt KIT kinase (Homo sapiens (Human), UniProt P10721); experiment: Wild-type KIT binding assay (Kd determination, phage-tagged kinase, qPCR)
Experimental: Kd Determinations. For most assays, including wt KIT kinase, kinase-tagged T7 phage strains were prepared in an E. coli host derived from the BL21 strain. E. coli were grown to log-phase and infected with T7 phage and incubated with shaking at 32° C. until lysis. […] The liganded beads were blocked with excess biotin and washed with blocking buffer (SeaBlock (Pierce), 1% BSA, 0.05% Tween 20, 1 mM DTT) to remove unbound ligand and to reduce non-specific binding. […] Test compounds were prepared as 111× stocks in 100% DMSO. Kds were determined using an 11-point 3-fold compound dilution series with three DMSO control points. […] The compounds were then diluted directly into the assays such that the final concentration of DMSO was 0.9%. All reactions were performed in polypropylene 384-well plate. Each was a final volume of 0.02 ml. […] The kinase concentration in the eluates was measured by qPCR.
Binding Constants (Kds). Binding constants (Kds) were calculated with a standard dose-response curve using the Hill equation: Response=Background+Signal−Background 1+(KdHill Slope/DoseHill Slope). The Hill Slope was set to −1. Curves were fitted using a non-linear least square fit with the Levenberg-Marquardt algorithm.

PDGFRα D842V = PDGFRα D842V (Homo sapiens (Human), UniProt P16234, D842V); experiment: PDGFRα D842V biochemical enzymatic activity assay (EZReader 2 mobility shift); conditions: at APPKM for ATP, 25 μM ATP, 90 minutes
Excerpt: as §1, §2, §3
Inhibition of KIT (D816V) PDGFRα (D842V) Mutant Biochemical Enzymatic Activity
as §4
The reaction was stopped by the addition of 70 μl of Stop buffer (100 mM HEPES pH 7.5, 0.015% Brij 35, 35 mM EDTA and 0.2% of Coating Reagent 3, Caliper Lifesciences). The plate was read on a Caliper EZReader 2.

[4] = rat brain slice, read-out: Rat Kp, uu Brain slice
[5] = homogenate rat brain, read-out: Rat Kp, uu Homogenate

Chain of PDGFRα D842V (P16234 24-1089 D842V): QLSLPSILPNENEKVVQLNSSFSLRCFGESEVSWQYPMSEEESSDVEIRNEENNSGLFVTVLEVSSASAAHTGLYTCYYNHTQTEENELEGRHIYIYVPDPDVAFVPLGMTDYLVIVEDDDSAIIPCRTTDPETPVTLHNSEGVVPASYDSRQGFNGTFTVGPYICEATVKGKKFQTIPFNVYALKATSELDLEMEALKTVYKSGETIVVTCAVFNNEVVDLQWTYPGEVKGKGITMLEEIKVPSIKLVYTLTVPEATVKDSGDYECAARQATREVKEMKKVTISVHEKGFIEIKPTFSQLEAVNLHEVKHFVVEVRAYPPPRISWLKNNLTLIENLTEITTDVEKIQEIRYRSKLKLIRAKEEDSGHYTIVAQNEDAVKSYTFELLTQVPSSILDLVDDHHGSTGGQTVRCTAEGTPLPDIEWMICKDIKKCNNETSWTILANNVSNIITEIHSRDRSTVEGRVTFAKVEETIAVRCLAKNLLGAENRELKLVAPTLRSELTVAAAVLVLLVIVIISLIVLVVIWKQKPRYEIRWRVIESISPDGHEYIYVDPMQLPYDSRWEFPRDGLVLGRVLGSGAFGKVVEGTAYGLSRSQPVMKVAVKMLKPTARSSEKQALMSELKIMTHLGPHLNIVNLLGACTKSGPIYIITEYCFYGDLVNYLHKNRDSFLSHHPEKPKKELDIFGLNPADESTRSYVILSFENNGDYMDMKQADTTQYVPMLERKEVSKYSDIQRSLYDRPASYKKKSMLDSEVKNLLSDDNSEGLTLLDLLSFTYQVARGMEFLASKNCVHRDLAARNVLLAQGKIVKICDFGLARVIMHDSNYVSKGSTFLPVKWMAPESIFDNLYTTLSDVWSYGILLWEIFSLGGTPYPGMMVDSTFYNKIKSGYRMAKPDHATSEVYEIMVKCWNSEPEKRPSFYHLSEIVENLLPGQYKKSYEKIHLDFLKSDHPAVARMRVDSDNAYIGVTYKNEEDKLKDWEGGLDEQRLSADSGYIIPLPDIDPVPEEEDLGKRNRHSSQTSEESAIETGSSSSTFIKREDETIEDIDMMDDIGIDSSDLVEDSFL
Chain of KIT D816V (Homo sapiens (Human), UniProt P10721, D816V/V560G) (P10721 26-976 V560G/D816V): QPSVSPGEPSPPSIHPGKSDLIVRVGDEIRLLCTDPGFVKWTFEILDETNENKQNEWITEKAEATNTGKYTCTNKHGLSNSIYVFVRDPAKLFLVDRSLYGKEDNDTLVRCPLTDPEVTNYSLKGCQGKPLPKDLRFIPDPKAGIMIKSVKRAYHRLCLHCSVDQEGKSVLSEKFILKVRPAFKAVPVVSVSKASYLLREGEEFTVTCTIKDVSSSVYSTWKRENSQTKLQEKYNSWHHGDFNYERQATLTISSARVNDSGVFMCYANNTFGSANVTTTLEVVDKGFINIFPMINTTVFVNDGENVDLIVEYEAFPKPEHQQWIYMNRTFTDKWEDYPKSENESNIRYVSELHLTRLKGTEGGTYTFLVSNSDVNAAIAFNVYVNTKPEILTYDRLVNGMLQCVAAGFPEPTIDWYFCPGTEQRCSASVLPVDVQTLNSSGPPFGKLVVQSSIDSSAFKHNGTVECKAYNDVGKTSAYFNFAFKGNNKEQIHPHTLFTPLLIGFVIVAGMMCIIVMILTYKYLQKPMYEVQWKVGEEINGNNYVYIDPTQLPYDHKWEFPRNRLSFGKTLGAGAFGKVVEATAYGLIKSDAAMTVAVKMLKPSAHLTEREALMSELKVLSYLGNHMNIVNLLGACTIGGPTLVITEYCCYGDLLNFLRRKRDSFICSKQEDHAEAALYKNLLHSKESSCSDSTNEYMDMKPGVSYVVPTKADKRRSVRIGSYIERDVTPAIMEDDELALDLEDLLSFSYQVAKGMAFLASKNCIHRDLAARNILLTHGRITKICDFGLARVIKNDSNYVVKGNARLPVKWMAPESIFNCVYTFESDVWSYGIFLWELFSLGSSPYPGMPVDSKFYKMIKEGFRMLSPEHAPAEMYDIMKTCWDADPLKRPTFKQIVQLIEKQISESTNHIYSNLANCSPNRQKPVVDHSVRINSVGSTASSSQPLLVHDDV
Chain of wt KIT kinase (P10721 26-976): as the sequence (P10721 26-976 V560G/D816V) above, with G535V, V791D counted along it
Chain of KIT D816V (Homo sapiens (Human), UniProt P10721, D816V) (P10721 26-976 D816V): as the sequence (P10721 26-976 V560G/D816V) above, with G535V counted along it

Structure (SMILES)	Kp uu at 24 h [1, 4]	IC50 (KIT D816V [2]) [nM]	IC50 (KIT D816V [3]) [nM]	Kd (wt KIT kinase) [nM]	IC50 (PDGFRα D842V) [nM]	Kp uu at 24 h [1, 5]	Kp at 24 h [1]	Rat Kp [1]	IC50 (UT-7 cells) [nM]
C[C@](N)(c1ccc(F)cc1)c1cnc(N2CCN(c3ncnn4cc(-c5cnn(CC6COC6)c5)cc34)CC2)nc1 [Compound 8, (S)-1-(4-fluorophenyl)-1-(2-(4-(6-(1-(oxetan-3-ylmethyl)-1H-pyrazol-4-yl)pyrrolo[2,1-f][1,2,4]triazin-4-yl)piperazin-1-yl)pyrimidin-5-yl)ethan-1-amine]	≤ 0.1	≤ 0.3	< 4.5	< 10	≤ 0.3	≤ 0.2	0.43	–	< 90
C[C@](N)(c1ccc(F)cc1)c1cnc(N2CCN(c3ncnn4cc(-c5cnn([C@H]6C[C@@H](O)C6)c5)cc34)CC2)nc1 [Compound 10, cis-3-(4-(4-(4-(5-((S)-1-Amino-1-(4-fluorophenyl)ethyl)pyrimidin-2-yl)piperazin-1-yl)pyrrolo[2,1-f][1,2,4]triazin-6-yl)-1H-pyrazol-1-yl)cyclobutanol]	–	0.31 to 1	< 4.5	< 10	≤ 0.3	–	–	0.23	< 90
C[C@](N)(c1ccc(F)cc1)c1cnc(N2CCN(c3ncnn4cc(-c5cnn([C@@H]6CCOC6)c5)cc34)CC2)nc1 [Compound 14, (S)-1-(4-Fluorophenyl)-1-(2-(4-(6-(1-((R)-tetrahydrofuran-3-yl)-1H-pyrazol-4-yl)pyrrolo[2,1-f][1,2,4]triazin-4-yl)piperazin-1-yl)pyrimidin-5-yl)ethanamine]	–	≤ 0.3	< 4.5	< 10	≤ 0.3	0.22	< 0.39	0.35	150 to 200

Second part, led by results:

Kp uu at 24 h [1, 4]	IC50 (KIT D816V [2]) [nM]	IC50 (KIT D816V [3]) [nM]	Kd (wt KIT kinase) [nM]	IC50 (PDGFRα D842V) [nM]	Kp uu at 24 h [1, 5]	Kp at 24 h [1]	Rat Kp [1]	Structure (SMILES)	IC50 (UT-7 cells) [nM]
0.04	≤ 0.3	< 4.5	< 10	≤ 0.3	–	–	–	C[C@](N)(c1ccc(F)cc1)c1cnc(N2CCN(c3ncnn4cc(-c5cnn([C@@H]6COC[C@H]6O)c5)cc34)CC2)nc1 (single isomer, unassigned) [Compound 19]	90.1 to 150
≤ 0.1	0.31 to 1	< 4.5	< 10	≤ 0.3	0.36	–	–	C[C@](N)(c1ccc(F)cc1)c1cnc(N2CCN(c3ncnn4cc(-c5cnn([C@H]6CC[C@@H]6O)c5)cc34)CC2)nc1 (single isomer, unassigned) [Compound 21]	90.1 to 150
≤ 0.1	≤ 0.3	< 4.5	< 10	≤ 0.3	0.62	0.9	–	C[C@](N)(c1ccc(F)cc1)c1cnc(N2CCN(c3ncnn4cc(-c5cnn([C@H]6CCOC6)c5)cc34)CC2)nc1 [Compound 15, (S)-1-(4-Fluorophenyl)-1-(2-(4-(6-(1-((S)-tetrahydrofuran-3-yl)-1H-pyrazol-4-yl)pyrrolo[2,1-f][1,2,4]triazin-4-yl)piperazin-1-yl)pyrimidin-5-yl)ethanamine]	150 to 200
≤ 0.1	≤ 0.3	4.6 to 10	< 10	≤ 0.3	≤ 0.2	0.93	–	C[C@](N)(c1ccc(F)cc1)c1cnc(N2CCN(c3ncnn4cc(-c5cnn(C6CCOCC6)c5)cc34)CC2)nc1 [Compound 16, (S)-1-(4-Fluorophenyl)-1-(2-(4-(6-(1-(tetrahydro-2H-pyran-4-yl)-1H-pyrazol-4-yl)pyrrolo[2,1-f][1,2,4]triazin-4-yl)piperazin-1-yl)pyrimidin-5-yl)ethan-1-amine]	150 to 200
